Results published in US20260027068A1, “METHODS OF ADM[…]-KETAMINE” (Perception Neuroscience, Inc., priority 2022, published 2026).

Test: Temperature (vital signs)
Experimental: The Investigational Medicinal Product (IMP) R(−)-ketamine hydrochloride in sterile water for intravenous injection was investigated as an […] treatment of TRD. The International Union of Pure and Applied Chemistry (IUPAC) name is of the IMP is (2R)-2-(2-chlorophenyl)-2-(methylamino)cyclohexan-1-one. Subjects received the solution at either 30 mg or 60 mg dose, or a placebo. The IMP or placebo was administered on Day 1 as a single IV infusion via an electronic infusion pump over 40 minutes. The duration of study participation for each subject was up to 29 days including a screening period, a 3-day in-clinic visit, and 2 follow-up visits. 101 subjects were enrolled in approximately 20 study centers in the EU and the US.
Tympanic or temporal temperature, heart rate, blood pressure (SBP/DBP), respiratory rate, and SpO2 were assessed. Blood pressure and pulse measurements will be assessed with a completely automated device while the subject is supine or semi-supine. Manual techniques will be used only if an automated device is not available. Blood pressure and pulse measurements should be preceded by at least 5 minutes of rest for the subject in a quiet setting without distractions (e.g., television, cell phones). An abnormal blood pressure value at screening may be repeated once after 5 minutes of relaxation to determine the subject's eligibility. Blood pressure was recorded using the same arm and position (supine or semi-supine) throughout the study, where possible. Vital signs (to be taken before blood collection for laboratory tests) consisted of 1 pulse and 3 blood pressure measurements (3 consecutive blood pressure readings will be recorded at intervals of at least 1 minute). The average of the 3 blood pressure readings was recorded in the CRF. A pulse oximeter was used to measure peripheral capillary oxygen saturation (SpO2) continuously from pre-dose until 4-hours post-dose. A pulse oximeter was clipped onto the finger or foot of the subject, and light will be sent through the finger or foot and measured on the other side.
In these tables, baseline value is defined as the last non-missing value prior to study drug administration.

CN[C@@]1(c2ccccc2Cl)CCCCC1=O.Cl [R(−)-ketamine, (2R)-2-(2-chlorophenyl)-2-(methylamino)cyclohexan-1-one]
Temperature, Max (30 mg, Day 1, 15 minutes): 37.2 °C
Temperature, Mean (30 mg, Day 1, 15 minutes): 36.57 °C
Temperature, Median (30 mg, Day 1, 15 minutes): 36.50 °C
Temperature, Min (30 mg, Day 1, 15 minutes): 36.4 °C
Temperature, Max (30 mg, Day 1, 40 minutes): 37.2 °C
Temperature, Mean (30 mg, Day 1, 40 minutes): 36.58 °C
Temperature, Median (30 mg, Day 1, 40 minutes): 36.60 °C
Temperature, Min (30 mg, Day 1, 40 minutes): 36.2 °C
Temperature, Max (30 mg, Day 1, 60 minutes): 37.2 °C
Temperature, Mean (30 mg, Day 1, 60 minutes): 36.57 °C
Temperature, Median (30 mg, Day 1, 60 minutes): 36.50 °C
Temperature, Min (30 mg, Day 1, 60 minutes): 36.3 °C
Temperature, Max (30 mg, Day 1, 2 hours): 37.2 °C
Temperature, Mean (30 mg, Day 1, 2 hours): 36.62 °C
Temperature, Median (30 mg, Day 1, 2 hours): 36.60 °C
Temperature, Min (30 mg, Day 1, 2 hours): 36.4 °C
Temperature, Max (30 mg, Day 1, 4 hours): 37.1 °C
Temperature, Mean (30 mg, Day 1, 4 hours): 36.57 °C
Temperature, Median (30 mg, Day 1, 4 hours): 36.60 °C
Temperature, Min (30 mg, Day 1, 4 hours): 36.3 °C
Temperature, Max (30 mg, Day 1, 6 hours): 37.2 °C
Temperature, Mean (30 mg, Day 1, 6 hours): 36.63 °C
Temperature, Median (30 mg, Day 1, 6 hours): 36.60 °C
Temperature, Min (30 mg, Day 1, 6 hours): 36.3 °C
Temperature, Max (30 mg, Day 2 - Discharge): 37.1 °C
Temperature, Mean (30 mg, Day 2 - Discharge): 36.59 °C
Temperature, Median (30 mg, Day 2 - Discharge): 36.60 °C
Temperature, Min (30 mg, Day 2 - Discharge): 35.9 °C
Temperature, Max (30 mg, Day 8): 36.8 °C
Temperature, Mean (30 mg, Day 8): 36.50 °C
Temperature, Median (30 mg, Day 8): 36.50 °C
Temperature, Min (30 mg, Day 8): 36.1 °C
Temperature, Max (30 mg, Day 15): 37.1 °C
Temperature, Mean (30 mg, Day 15): 36.60 °C
Temperature, Median (30 mg, Day 15): 36.60 °C
Temperature, Min (30 mg, Day 15): 36.2 °C
Temperature, Change from Baseline, Max (30 mg, to Day 1, 15 minutes): 0.4 °C
Temperature, Change from Baseline, Mean (30 mg, to Day 1, 15 minutes): 0.05 °C
Temperature, Change from Baseline, Median (30 mg, to Day 1, 15 minutes): 0.10 °C
Temperature, Change from Baseline, Min (30 mg, to Day 1, 15 minutes): −0.3 °C
Temperature, Change from Baseline, Max (30 mg, to Day 1, 40 minutes): 0.5 °C
Temperature, Change from Baseline, Mean (30 mg, to Day 1, 40 minutes): 0.05 °C
Temperature, Change from Baseline, Median (30 mg, to Day 1, 40 minutes): 0.00 °C
Temperature, Change from Baseline, Min (30 mg, to Day 1, 40 minutes): −0.2 °C
Temperature, Change from Baseline, Max (30 mg, to Day 1, 60 minutes): 0.5 °C
Temperature, Change from Baseline, Mean (30 mg, to Day 1, 60 minutes): 0.05 °C
Temperature, Change from Baseline, Median (30 mg, to Day 1, 60 minutes): 0.00 °C
Temperature, Change from Baseline, Min (30 mg, to Day 1, 60 minutes): −0.3 °C
Temperature, Change from Baseline, Max (30 mg, to Day 1, 2 hours): 0.7 °C
Temperature, Change from Baseline, Mean (30 mg, to Day 1, 2 hours): 0.08 °C
Temperature, Change from Baseline, Median (30 mg, to Day 1, 2 hours): 0.10 °C
Temperature, Change from Baseline, Min (30 mg, to Day 1, 2 hours): −0.2 °C
Temperature, Change from Baseline, Max (30 mg, to Day 1, 4 hours): 0.5 °C
Temperature, Change from Baseline, Mean (30 mg, to Day 1, 4 hours): 0.03 °C
Temperature, Change from Baseline, Median (30 mg, to Day 1, 4 hours): 0.00 °C
Temperature, Change from Baseline, Min (30 mg, to Day 1, 4 hours): −0.4 °C
Temperature, Change from Baseline, Max (30 mg, to Day 1, 6 hours): 0.9 °C
Temperature, Change from Baseline, Mean (30 mg, to Day 1, 6 hours): 0.09 °C
Temperature, Change from Baseline, Median (30 mg, to Day 1, 6 hours): 0.10 °C
Temperature, Change from Baseline, Min (30 mg, to Day 1, 6 hours): −0.4 °C
Temperature, Change from Baseline, Max (30 mg, to Day 2 - Discharge): 0.5 °C
Temperature, Change from Baseline, Mean (30 mg, to Day 2 - Discharge): 0.05 °C
Temperature, Change from Baseline, Median (30 mg, to Day 2 - Discharge): 0.00 °C
Temperature, Change from Baseline, Min (30 mg, to Day 2 - Discharge): −0.3 °C
Temperature, Change from Baseline, Max (30 mg, to Day 8): 0.6 °C
Temperature, Change from Baseline, Mean (30 mg, to Day 8): −0.03 °C
Temperature, Change from Baseline, Median (30 mg, to Day 8): 0.00 °C
Temperature, Change from Baseline, Min (30 mg, to Day 8): −0.7 °C
Temperature, Change from Baseline, Max (30 mg, to Day 15): 0.9 °C
Temperature, Change from Baseline, Mean (30 mg, to Day 15): 0.05 °C
Temperature, Change from Baseline, Median (30 mg, to Day 15): 0.00 °C
Temperature, Change from Baseline, Min (30 mg, to Day 15): −0.4 °C
Temperature, Max (60 mg, Day 1, 15 minutes): 36.9 °C
Temperature, Mean (60 mg, Day 1, 15 minutes): 36.58 °C
Temperature, Median (60 mg, Day 1, 15 minutes): 36.50 °C
Temperature, Min (60 mg, Day 1, 15 minutes): 36.4 °C
Temperature, Max (60 mg, Day 1, 40 minutes): 36.8 °C
Temperature, Mean (60 mg, Day 1, 40 minutes): 36.58 °C
Temperature, Median (60 mg, Day 1, 40 minutes): 36.60 °C
Temperature, Min (60 mg, Day 1, 40 minutes): 36.3 °C
Temperature, Max (60 mg, Day 1, 60 minutes): 36.8 °C
Temperature, Mean (60 mg, Day 1, 60 minutes): 36.55 °C
Temperature, Median (60 mg, Day 1, 60 minutes): 36.50 °C
Temperature, Min (60 mg, Day 1, 60 minutes): 36.4 °C
Temperature, Max (60 mg, Day 1, 2 hours): 37.0 °C
Temperature, Mean (60 mg, Day 1, 2 hours): 36.60 °C
Temperature, Median (60 mg, Day 1, 2 hours): 36.60 °C
Temperature, Min (60 mg, Day 1, 2 hours): 36.2 °C
Temperature, Max (60 mg, Day 1, 4 hours): 37.0 °C
Temperature, Mean (60 mg, Day 1, 4 hours): 36.60 °C
Temperature, Median (60 mg, Day 1, 4 hours): 36.60 °C
Temperature, Min (60 mg, Day 1, 4 hours): 36.3 °C
Temperature, Max (60 mg, Day 1, 6 hours): 37.1 °C
Temperature, Mean (60 mg, Day 1, 6 hours): 36.61 °C
Temperature, Median (60 mg, Day 1, 6 hours): 36.60 °C
Temperature, Min (60 mg, Day 1, 6 hours): 36.1 °C
Temperature, Max (60 mg, Day 2 - Discharge): 36.9 °C
Temperature, Mean (60 mg, Day 2 - Discharge): 36.60 °C
Temperature, Median (60 mg, Day 2 - Discharge): 36.60 °C
Temperature, Min (60 mg, Day 2 - Discharge): 36.1 °C
Temperature, Max (60 mg, Day 8): 37.2 °C
Temperature, Mean (60 mg, Day 8): 36.55 °C
Temperature, Median (60 mg, Day 8): 36.60 °C
Temperature, Min (60 mg, Day 8): 35.8 °C
Temperature, Max (60 mg, Day 15): 37.0 °C
Temperature, Mean (60 mg, Day 15): 36.62 °C
Temperature, Median (60 mg, Day 15): 36.60 °C
Temperature, Min (60 mg, Day 15): 36.3 °C
Temperature, Change from Baseline, Max (60 mg, to Day 1, 15 minutes): 0.3 °C
Temperature, Change from Baseline, Mean (60 mg, to Day 1, 15 minutes): 0.04 °C
Temperature, Change from Baseline, Median (60 mg, to Day 1, 15 minutes): 0.00 °C
Temperature, Change from Baseline, Min (60 mg, to Day 1, 15 minutes): −0.2 °C
Temperature, Change from Baseline, Max (60 mg, to Day 1, 40 minutes): 0.7 °C
Temperature, Change from Baseline, Mean (60 mg, to Day 1, 40 minutes): 0.05 °C
Temperature, Change from Baseline, Median (60 mg, to Day 1, 40 minutes): 0.00 °C
Temperature, Change from Baseline, Min (60 mg, to Day 1, 40 minutes): −0.4 °C
Temperature, Change from Baseline, Max (60 mg, to Day 1, 60 minutes): 0.3 °C
Temperature, Change from Baseline, Mean (60 mg, to Day 1, 60 minutes): 0.01 °C
Temperature, Change from Baseline, Median (60 mg, to Day 1, 60 minutes): 0.00 °C
Temperature, Change from Baseline, Min (60 mg, to Day 1, 60 minutes): −0.3 °C
Temperature, Change from Baseline, Max (60 mg, to Day 1, 2 hours): 0.8 °C
Temperature, Change from Baseline, Mean (60 mg, to Day 1, 2 hours): 0.07 °C
Temperature, Change from Baseline, Median (60 mg, to Day 1, 2 hours): 0.00 °C
Temperature, Change from Baseline, Min (60 mg, to Day 1, 2 hours): −0.5 °C
Temperature, Change from Baseline, Max (60 mg, to Day 1, 4 hours): 0.9 °C
Temperature, Change from Baseline, Mean (60 mg, to Day 1, 4 hours): 0.07 °C
Temperature, Change from Baseline, Median (60 mg, to Day 1, 4 hours): 0.00 °C
Temperature, Change from Baseline, Min (60 mg, to Day 1, 4 hours): −0.2 °C
Temperature, Change from Baseline, Max (60 mg, to Day 1, 6 hours): 1.0 °C
Temperature, Change from Baseline, Mean (60 mg, to Day 1, 6 hours): 0.07 °C
Temperature, Change from Baseline, Median (60 mg, to Day 1, 6 hours): 0.00 °C
Temperature, Change from Baseline, Min (60 mg, to Day 1, 6 hours): −0.4 °C
Temperature, Change from Baseline, Max (60 mg, to Day 2 - Discharge): 0.6 °C
Temperature, Change from Baseline, Mean (60 mg, to Day 2 - Discharge): 0.07 °C
Temperature, Change from Baseline, Median (60 mg, to Day 2 - Discharge): 0.10 °C
Temperature, Change from Baseline, Min (60 mg, to Day 2 - Discharge): −0.7 °C
Temperature, Change from Baseline, Max (60 mg, to Day 8): 1.2 °C
Temperature, Change from Baseline, Mean (60 mg, to Day 8): 0.01 °C
Temperature, Change from Baseline, Median (60 mg, to Day 8): 0.00 °C
Temperature, Change from Baseline, Min (60 mg, to Day 8): −0.9 °C
Temperature, Change from Baseline, Max (60 mg, to Day 15): 1.2 °C
Temperature, Change from Baseline, Mean (60 mg, to Day 15): 0.08 °C
Temperature, Change from Baseline, Median (60 mg, to Day 15): 0.00 °C
Temperature, Change from Baseline, Min (60 mg, to Day 15): −0.5 °C
